Data published in patent US10759774B2, “Inhibitors of hepatitis B virus targeting capsid assembly” (THE CURATORS OF THE UNIVERSITY OF MISSOURI, priority 2017, dated 2020).

System: HBV
Experiment: Cell-based anti-HBV activity of HF9C6 analogs (Table 2; HBV DNA in HepAD38 cells)
Settings: Hepatitis B virus
Method: HepAD38 cells (5×10^4) were plated in 96-well plates in tet media. The next day, cells were washed 2× with PBS, and the media was replaced with complete media (DMEM, 10% FBS) containing compounds. Fresh complete media with compounds was added again after 2 days. After 2 additional days, cells were washed with PBS, trypsinized, and pelleted by centrifugation. The cell pellet was resuspended in 200 μl PBS, and DNA was extracted and analyzed as above. For dose responses, values were plotted in GraphPad Prism 5 and analyzed with the log (inhibitor) vs. normalized response—variable slope equation.
HepAD38 cells were seeded in 96-well plates (3×10^4 cells/well) in tet media. […] After 2 days, the media was removed, and fresh media containing compounds was added. After 2 additional days, cells were washed with PBS and lysed with 10 mM Tris (pH 7.5), 1mM EDTA, 100mM NaCl, 1% NP-40 at 37° C. for 30 min. 60 μl of lysate was added to 60 μl of 1 M NaOH, 1.5 M NaCl and incubated at RT for 5 min to denature DNA. 120 μl of 1 M Tris (pH 7.4), 2 M NaCl was added. Samples were transferred to positively charged nylon membranes (Roche) using a vacuum dot blot manifold. The wells were washed with 200 μl of 20× SSC (3M NaCl, 300 mM sodium citrate), and the DNA was UV crosslinked to the membranes. […] Membranes were incubated with CDP-STAR® chemiluminescent substrate (Roche), imaged by chemiluminescence, and quantified by densitometry. Values were plotted in GraphPad Prism 5 and analyzed with the log (inhibitor) vs. normalized response—variable slope equation.

| Compound | EC50 |
| --- | --- |
| CCOC(=O)c1sc2[nH]c(Cc3ccccc3)nc(=O)c2c1C [ZW-772, Ethyl 2-benzyl-5-methyl-4-oxo-1,4-dihydrothieno[2,3-d]pyrimidine-6-carboxylate] | > 10 µM |

Same assay, conditions: Hepatitis B virus, Table 2, cell-based, read-out: EC50

| Compound | EC50 |
| --- | --- |
| Cc1c(C(=O)Nc2ccccc2)sc(N)c1C(=O)NC1CC1 [ZW-792, 5-Amino-N4-cyclopropyl-3-methyl-N2-phenylthiophene-2,4-dicarboxamide] | > 10 µM |
| CCOC(=O)c1sc2[nH]c(Cc3ccc(F)cc3)nc(=O)c2c1C [ZW-776, Ethyl 2-(4-fluorobenzyl)-5-methyl-4-oxo-1,4-dihydrothieno[2,3-d]pyrimidine-6-carboxylate] | > 10 µM |
| COc1ccc(NC(=O)c2sc(N)c(C(N)=O)c2C)cc1 [ZW-769, 5-Amino-N2-(4-methoxyphenyl)-3-methylthiophene-2,4-dicarboxamide] | ~10 µM |
| Cc1ccc(NC(=O)c2sc(N)c(C(N)=O)c2C)cc1 [ZW-771, 5-Amino-3-methyl-N2-(p-tolyl)thiophene-2,4-dicarboxamide] | > 10 µM |
| Cc1c(C(=O)NCc2ccccc2)sc(N)c1C(N)=O [ZW-770, 5-Amino-N2-benzyl-3-methylthiophene-2,4-dicarboxamide] | ~10 µM |
| CCOC(=O)c1sc2[nH]c(Cc3cc(C)cc(C)c3)nc(=O)c2c1C [ZW-773, Ethyl 2-(3,5-dimethylbenzyl)-5-methyl-4-oxo-1,4-dihydrothieno[2,3-d]pyrimidine-6-carboxylate] | > 10 µM |
| Cc1c(C(=O)Nc2ccc(F)c(F)c2)sc(N)c1C#N [ZW-1043, 5-Amino-4-cyano-N-(3,4-difluorophenyl)-3-methylthiophene-2-carboxamide] | ~10 µM |
| Cc1c(C(=O)Nc2ccc(F)c(F)c2)sc(N)c1C(=O)Nc1ccc(Cl)cc1 [ZW-893, 5-Amino-N4-(4-chlorophenyl)-N2-(3,4-difluorophenyl)-3-methylthiophene-2,4-dicarboxamide] | > 10 µM |
| COc1ccc(CNC(=O)c2c(N)sc(C(=O)Nc3ccccc3)c2C)cc1 [ZW-791, 5-Amino-N4-(4-methoxybenzyl)-3-methyl-N2-phenylthiophene-2,4-dicarboxamide] | > 10 µM |
| Cc1c(C(=O)Nc2ccccc2)sc(N)c1C(=O)NCc1ccc(C(F)(F)F)cc1 [ZW-790, 5-Amino-3-methyl-N2-phenyl-N4-(4-(trifluoromethyl)benzyl)thiophene-2,4-dicarboxamide] | > 10 µM |
| Cc1c(C(=O)Nc2ccccc2)sc(NC(=O)Cc2ccc(F)c(F)c2)c1C(N)=O [ZW-1050] | ~10 µM |
| Cc1ccc(CC(=O)Nc2sc(C(=O)Nc3ccccc3)c(C)c2C(N)=O)cc1F [ZW-1051, 5-(2-(3-Fluoro-4-methylphenyl)acetamido)-3-methyl-N2-phenylthiophene-2,4-dicarboxamide] | > 10 µM |
| CCOC(=O)c1sc2[nH]c(-c3ccc(C)c(F)c3)nc(=O)c2c1C [ZW-775, Ethyl 2-(3-fluoro-4-methylphenyl)-5-methyl-4-oxo-1,4-dihydrothieno[2,3-d]pyrimidine-6-carboxylate] | > 10 µM |
| Cc1c(C(=O)Nc2ccccc2)sc(N)c1C(=O)NC1CCCC1 [ZW-895, 5-Amino-N4-cyclopentyl-3-methyl-N2-phenylthiophene-2,4-dicarboxamide] | > 10 µM |
| CCOC(=O)c1c(N)sc(C(=O)Nc2ccccc2)c1C [ZW-1045, Ethyl 2-amino-4-methyl-5-(phenylcarbamoyl)thiophene-3-carboxylate] | > 10 µM |
| CCOC(=O)c1sc2[nH]c(C3CCCCC3)nc(=O)c2c1C [ZW-777, Ethyl 2-cyclohexyl-5-methyl-4-oxo-1,4-dihydrothieno[2,3-d]pyrimidine-6-carboxylate] | > 10 µM |
| Cc1c(C(=O)Nc2ccc(F)c(F)c2)sc(N)c1C(=O)NC1CCCC1 [ZW-894, 5-Amino-N4-cyclopentyl-N2-(3,4-difluorophenyl)-3-methylthiophene-2,4-dicarboxamide] | > 10 µM |
| CCOC(=O)c1sc2[nH]c(Cc3ccc(-c4ccccc4)cc3)nc(=O)c2c1C [ZW-774, Ethyl 2-([1,1′-biphenyl]-4-ylmethyl)-5-methyl-4-oxo-1,4-dihydrothieno[2,3-d]pyrimidine-6-carboxylate] | > 10 µM |

System: not listed separately
Experiment: Cytotoxicity, Cell Proliferation Kit II (XTT) (Table 2)
Format: cell-based
Settings: human
Method: HepG2 cells were treated with compounds as in the antiviral screening above. At the end of treatment duration, cell viability was assessed with the Cell Proliferation Kit II (XTT) (Roche, Basel, Switzerland) according to the manufacturer's instructions. Values were plotted in GraphPad Prism 5 and analyzed with the log (inhibitor) vs. normalized response—variable slope equation.

| Compound | CC50 |
| --- | --- |
| Cc1cc(NC(=O)c2sc(N)c(C(N)=O)c2C)ccc1Br [ZW-1068, 5-Amino-N2-(4-bromo-3-methylphenyl)-3-methylthiophene-2,4-dicarboxamide] | 107 ± 7.2 µM |
| Cc1c(C(=O)Nc2ccc(F)c(F)c2)sc(N)c1C(=O)Nc1ccccc1 [ZW-892, 5-Amino-N2-(3,4-difluorophenyl)-3-methyl-N4-phenylthiophene-2,4-dicarboxamide] | 26.2 ± 2.7 µM |
| Cc1cc(NC(=O)c2sc(N)c(C#N)c2C)ccc1F [ZW-1044, 5-Amino-4-cyano-N-(4-fluoro-3-methylphenyl)-3-methylthiophene-2-carboxamide] | 96.1 ± 10.1 µM |
| Cc1c(C(=O)Nc2cc(F)c(F)c(Cl)c2)sc(N)c1C(N)=O [ZW-1034, 5-Amino-N2-(3-chloro-4,5-difluorophenyl)-3-methylthiophene-2,4-dicarboxamide] | 71.8 ± 4.1 µM |
| Cc1cc(NC(=O)c2c(N)sc(C(=O)Nc3ccccc3)c2C)ccc1F [ZW-934, 5-Amino-N4-(4-fluoro-3-methylphenyl)-3-methyl-N2-phenylthiophene-2,4-dicarboxamide] | 39.6 ± 2.6 µM |
| Cc1c(C(=O)Nc2ccccc2)sc(NC(=O)c2cc(Cl)cc(Cl)c2)c1C(N)=O [ZW-1040, 5-(3,5-Dichlorobenzamido)-3-methyl-N2-phenylthiophene-2,4-dicarboxamide] | 49.5 ± 0.1 µM |
| CCOC(=O)c1c(N)sc(C(=O)Nc2ccccc2)c1C [ZW-1045, Ethyl 2-amino-4-methyl-5-(phenylcarbamoyl)thiophene-3-carboxylate] | 75.9 ± 1.8 µM |
| Cc1c(C(=O)Nc2ccccc2)sc(N)c1C(=O)Nc1ccc(F)c(F)c1 [ZW-933, 5-Amino-N4-(3,4-difluorophenyl)-3-methyl-N2-phenylthiophene-2,4-dicarboxamide] | 40.5 ± 5.1 µM |
| Cc1c(C(=O)Nc2ccc(Cl)c(C(F)(F)F)c2)sc(N)c1C(N)=O [ZW-1067, 5-Amino-N2-(4-chloro-3-(trifluoromethyl)phenyl)-3-methylthiophene-2,4-dicarboxamide] | 72.1 ± 6.4 µM |

Same assay, conditions: human, HepG2 cells

| Compound | CC50 |
| --- | --- |
| Cc1c(C(=O)Nc2ccc(F)c(C(F)(F)F)c2)sc(N)c1C(N)=O [ZW-1057, 5-Amino-N2-(4-fluoro-3-(trifluoromethyl)phenyl)-3-methylthiophene-2,4-dicarboxamide] | > 100 µM |
| Cc1c(C(=O)Nc2ccccc2)sc(NC(=O)c2csc([N+](=O)[O-])c2)c1C(N)=O [ZW-1054, 3-Methyl-5-(5-nitrothiophene-3-carboxamido)-N2-phenylthiophene-2,4-dicarboxamide] | > 100 µM |
| Cc1c(C(=O)Nc2ccc(F)c(C#N)c2)sc(N)c1C(N)=O [ZW-1039, 5-Amino-N2-(3-cyano-4-fluorophenyl)-3-methylthiophene-2,4-dicarboxamide] | > 100 µM |
| Cc1c(C(=O)Nc2ccc(F)c(F)c2)sc(N)c1C#N [ZW-1043, 5-Amino-4-cyano-N-(3,4-difluorophenyl)-3-methylthiophene-2-carboxamide] | > 100 µM |
| Cc1c(C(=O)Nc2ccccc2)sc(NC(=O)Cc2ccc(F)c(F)c2)c1C(N)=O [ZW-1050] | > 100 µM |
| CCOC(=O)c1c(N)sc(C(=O)Nc2ccc(F)c(C)c2)c1C [ZW-1046, Ethyl 2-amino-5-((4-fluoro-3-methylphenyl)carbamoyl)-4-methylthiophene-3-carboxylate] | > 100 µM |
| Cc1ccc(CC(=O)Nc2sc(C(=O)Nc3ccccc3)c(C)c2C(N)=O)cc1F [ZW-1051, 5-(2-(3-Fluoro-4-methylphenyl)acetamido)-3-methyl-N2-phenylthiophene-2,4-dicarboxamide] | > 100 µM |
| Cc1c(C(=O)Nc2ccc(F)c(C(F)F)c2)sc(N)c1C(N)=O [ZW-1066, 5-Amino-N2-(3-(difluoromethyl)-4-fluorophenyl)-3-methylthiophene-2,4-dicarboxamide] | > 100 µM |
| Cc1c(C(=O)Nc2ccc(F)cc2)sc(N)c1C(N)=O [ZW-1037, 5-Amino-N2-(4-fluorophenyl)-3-methylthiophene-2,4-dicarboxamide] | > 100 µM |
| Cc1c(C(=O)Nc2ccccc2)sc(NC(=O)c2ccc(S(C)(=O)=O)cc2)c1C(N)=O [ZW-1073, 3-Methyl-5-(4-(methylsulfonyl)benzamido)-N2-phenylthiophene-2,4-dicarboxamide] | > 100 µM |
| Cc1c(C(=O)Nc2ccc(F)c(F)c2)sc(N)c1C(N)=O [ZW-896, 5-Amino-N2-(3,4-difluorophenyl)-3-methylthiophene-2,4-dicarboxamide] | > 100 µM |
| Cc1c(C(=O)Nc2ccccc2)sc(NC(=O)c2nccs2)c1C(N)=O [ZW-1053, 3-Methyl-N2-phenyl-5-(thiazole-2-carboxamido)thiophene-2,4-dicarboxamide] | > 100 µM |
| Cc1c(C(=O)Nc2ccccc2)sc(N)c1C(=O)Nc1ccccc1 [ZW-794, 5-Amino-3-methyl-N2,N4-diphenylthiophene-2,4-dicarboxamide] | > 100 µM |
| Cc1c(C(=O)Nc2ccccc2)sc(NC(=O)c2ccsc2)c1C(N)=O [ZW-1055, 3-Methyl-N2-phenyl-5-(thiophene-3-carboxamido)thiophene-2,4-dicarboxamide] | > 100 µM |
| Cc1ccc(C(=O)Nc2sc(C(=O)Nc3ccccc3)c(C)c2C(N)=O)s1 [ZW-1056, 3-Methyl-5-(5-methylthiophene-2-carboxamido)-N2-phenylthiophene-2,4-dicarboxamide] | > 100 µM |
| Cc1c(C(=O)Nc2ccc(F)c(F)c2)sc(N)c1C(=O)Nc1ccc(F)c(F)c1 [ZW-932, 5-Amino-N2,N4-bis(3,4-difluorophenyl)-3-methylthiophene-2,4-dicarboxamide] | 17.4 ± 1.3 µM |
| Cc1c(C(=O)Nc2ccccc2)sc(NC(=O)c2cn[nH]c2)c1C(N)=O [ZW-1052, 3-Methyl-N2-phenyl-5-(1H-pyrazole-4-carboxamido)thiophene-2,4-dicarboxamide] | > 100 µM |
